Assay results taken from ChEMBL document CHEMBL3991601, “The target landscape of clinical kinase drugs” (Science, 2017).
Active and inactive are the calls of the source.

Legend:
[1] = target: T1, Serine/threonine-protein kinase ULK3 (Homo sapiens, UniProt Q6PHR2)
T1 sequence (Q6PHR2 whole entry): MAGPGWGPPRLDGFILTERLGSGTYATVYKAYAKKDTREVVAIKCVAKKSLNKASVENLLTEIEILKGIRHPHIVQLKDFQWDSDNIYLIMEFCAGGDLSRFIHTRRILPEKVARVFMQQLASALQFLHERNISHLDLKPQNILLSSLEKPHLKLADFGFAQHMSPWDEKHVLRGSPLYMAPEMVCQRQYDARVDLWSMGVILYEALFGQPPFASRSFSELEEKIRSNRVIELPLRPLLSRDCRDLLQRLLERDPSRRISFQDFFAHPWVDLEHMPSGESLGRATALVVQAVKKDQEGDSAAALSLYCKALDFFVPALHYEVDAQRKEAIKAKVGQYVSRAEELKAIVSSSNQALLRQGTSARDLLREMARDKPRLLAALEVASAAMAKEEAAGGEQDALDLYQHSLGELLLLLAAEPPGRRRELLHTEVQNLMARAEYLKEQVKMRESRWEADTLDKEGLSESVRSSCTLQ

[2] = target: Ribosomal protein S6 kinase beta-1 (Homo sapiens, UniProt P23443)
[3] = target: T2, ATP-dependent RNA helicase DDX1 (Homo sapiens, UniProt Q92499)
T2 sequence (Q92499 whole entry): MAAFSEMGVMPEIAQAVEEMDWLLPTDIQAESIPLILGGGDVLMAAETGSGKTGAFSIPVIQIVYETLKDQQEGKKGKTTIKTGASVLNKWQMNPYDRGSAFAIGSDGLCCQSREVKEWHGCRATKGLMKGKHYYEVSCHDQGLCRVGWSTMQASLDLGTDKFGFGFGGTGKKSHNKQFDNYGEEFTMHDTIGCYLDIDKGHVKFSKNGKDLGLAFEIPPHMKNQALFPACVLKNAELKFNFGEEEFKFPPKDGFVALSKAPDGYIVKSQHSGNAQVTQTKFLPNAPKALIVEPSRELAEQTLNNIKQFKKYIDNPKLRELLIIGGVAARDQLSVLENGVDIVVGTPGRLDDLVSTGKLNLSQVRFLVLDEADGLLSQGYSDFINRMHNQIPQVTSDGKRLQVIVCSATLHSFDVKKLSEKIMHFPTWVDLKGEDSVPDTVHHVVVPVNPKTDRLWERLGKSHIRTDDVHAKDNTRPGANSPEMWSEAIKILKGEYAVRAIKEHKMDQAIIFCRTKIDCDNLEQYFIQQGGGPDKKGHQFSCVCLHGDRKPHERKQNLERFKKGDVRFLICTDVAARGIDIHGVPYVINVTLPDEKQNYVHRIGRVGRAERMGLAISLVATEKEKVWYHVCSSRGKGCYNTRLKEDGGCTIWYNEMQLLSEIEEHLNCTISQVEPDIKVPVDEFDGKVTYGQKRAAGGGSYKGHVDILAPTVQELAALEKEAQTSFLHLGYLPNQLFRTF

[4] = target: T3, Dual specificity mitogen-activated protein kinase kinase 6 (Homo sapiens, UniProt P52564)
T3 sequence (P52564 whole entry): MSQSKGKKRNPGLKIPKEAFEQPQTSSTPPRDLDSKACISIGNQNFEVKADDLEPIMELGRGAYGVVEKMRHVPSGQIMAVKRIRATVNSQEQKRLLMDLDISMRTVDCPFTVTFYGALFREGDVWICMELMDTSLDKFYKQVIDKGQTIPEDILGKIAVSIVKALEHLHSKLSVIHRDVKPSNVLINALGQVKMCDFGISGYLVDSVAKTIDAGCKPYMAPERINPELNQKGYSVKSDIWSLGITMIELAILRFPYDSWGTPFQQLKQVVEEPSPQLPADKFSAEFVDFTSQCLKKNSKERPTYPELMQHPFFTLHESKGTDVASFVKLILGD

[5] = target: Structural maintenance of chromosomes protein 2 (Homo sapiens, UniProt O95347)
[6] = target: Interleukin-1 receptor-associated kinase 1 (Homo sapiens, UniProt P51617)
[7] = target: T4, Dynamin-like GTPase OPA1, mitochondrial (Homo sapiens, UniProt O60313)
T4 sequence (O60313 whole entry): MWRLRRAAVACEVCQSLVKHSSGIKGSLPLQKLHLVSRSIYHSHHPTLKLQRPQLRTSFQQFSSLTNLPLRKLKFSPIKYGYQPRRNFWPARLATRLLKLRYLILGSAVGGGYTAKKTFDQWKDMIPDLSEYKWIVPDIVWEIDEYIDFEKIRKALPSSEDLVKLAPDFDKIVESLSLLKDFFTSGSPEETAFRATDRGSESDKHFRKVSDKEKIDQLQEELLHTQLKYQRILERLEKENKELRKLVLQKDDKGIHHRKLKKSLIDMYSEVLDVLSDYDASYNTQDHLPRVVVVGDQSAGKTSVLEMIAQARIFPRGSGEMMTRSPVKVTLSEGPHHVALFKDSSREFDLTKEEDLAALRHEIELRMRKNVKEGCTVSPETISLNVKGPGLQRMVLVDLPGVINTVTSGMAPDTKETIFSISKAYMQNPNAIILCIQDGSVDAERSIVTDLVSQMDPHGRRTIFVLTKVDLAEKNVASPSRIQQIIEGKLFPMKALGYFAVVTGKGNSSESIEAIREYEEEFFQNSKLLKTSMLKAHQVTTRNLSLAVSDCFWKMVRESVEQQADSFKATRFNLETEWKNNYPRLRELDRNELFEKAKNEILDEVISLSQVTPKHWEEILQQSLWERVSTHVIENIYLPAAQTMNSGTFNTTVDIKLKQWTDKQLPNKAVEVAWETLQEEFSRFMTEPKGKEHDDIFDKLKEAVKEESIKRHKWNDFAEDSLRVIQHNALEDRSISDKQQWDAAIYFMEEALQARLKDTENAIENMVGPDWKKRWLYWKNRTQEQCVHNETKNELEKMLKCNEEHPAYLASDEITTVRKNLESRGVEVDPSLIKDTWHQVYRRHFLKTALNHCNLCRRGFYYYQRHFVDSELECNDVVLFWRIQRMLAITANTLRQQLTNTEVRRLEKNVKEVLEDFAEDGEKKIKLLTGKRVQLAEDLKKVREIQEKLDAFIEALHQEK
Note: in the data inactive means no Kd found up to 30 µM.

Interleukin-1 receptor-associated kinase 1, sequence (P51617 whole entry): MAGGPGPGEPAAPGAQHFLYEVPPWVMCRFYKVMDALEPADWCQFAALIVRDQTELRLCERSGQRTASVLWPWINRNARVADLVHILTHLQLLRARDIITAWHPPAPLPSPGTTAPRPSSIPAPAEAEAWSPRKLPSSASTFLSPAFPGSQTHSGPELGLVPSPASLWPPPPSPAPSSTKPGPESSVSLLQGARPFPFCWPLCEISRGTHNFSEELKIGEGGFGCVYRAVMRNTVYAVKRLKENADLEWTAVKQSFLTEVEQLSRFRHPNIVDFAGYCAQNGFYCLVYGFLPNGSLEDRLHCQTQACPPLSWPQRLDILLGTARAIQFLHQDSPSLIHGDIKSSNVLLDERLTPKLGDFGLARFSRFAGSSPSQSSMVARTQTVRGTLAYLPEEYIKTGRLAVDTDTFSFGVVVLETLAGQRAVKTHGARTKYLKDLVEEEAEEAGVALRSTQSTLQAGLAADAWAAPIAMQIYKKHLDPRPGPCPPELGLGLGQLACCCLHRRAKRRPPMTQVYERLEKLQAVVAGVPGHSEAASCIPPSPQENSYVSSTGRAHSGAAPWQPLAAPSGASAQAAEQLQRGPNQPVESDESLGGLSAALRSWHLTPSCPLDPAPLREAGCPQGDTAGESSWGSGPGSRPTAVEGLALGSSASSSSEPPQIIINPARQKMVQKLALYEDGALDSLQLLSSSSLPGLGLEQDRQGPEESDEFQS
Ribosomal protein S6 kinase beta-1, sequence (P23443 whole entry): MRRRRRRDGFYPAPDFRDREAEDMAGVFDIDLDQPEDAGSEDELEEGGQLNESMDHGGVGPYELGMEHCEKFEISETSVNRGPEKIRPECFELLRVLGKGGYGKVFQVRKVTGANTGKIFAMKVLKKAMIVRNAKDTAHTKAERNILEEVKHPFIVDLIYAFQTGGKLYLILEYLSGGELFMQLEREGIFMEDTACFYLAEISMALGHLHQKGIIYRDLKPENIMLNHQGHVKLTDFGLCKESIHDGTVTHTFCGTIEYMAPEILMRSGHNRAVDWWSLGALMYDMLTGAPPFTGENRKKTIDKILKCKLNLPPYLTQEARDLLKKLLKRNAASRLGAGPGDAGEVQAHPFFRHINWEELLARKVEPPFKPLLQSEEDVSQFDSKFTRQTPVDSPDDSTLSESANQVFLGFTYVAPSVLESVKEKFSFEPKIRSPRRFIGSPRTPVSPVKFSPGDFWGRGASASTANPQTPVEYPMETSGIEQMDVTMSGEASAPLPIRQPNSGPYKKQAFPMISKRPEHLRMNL
Structural maintenance of chromosomes protein 2, sequence (O95347 whole entry): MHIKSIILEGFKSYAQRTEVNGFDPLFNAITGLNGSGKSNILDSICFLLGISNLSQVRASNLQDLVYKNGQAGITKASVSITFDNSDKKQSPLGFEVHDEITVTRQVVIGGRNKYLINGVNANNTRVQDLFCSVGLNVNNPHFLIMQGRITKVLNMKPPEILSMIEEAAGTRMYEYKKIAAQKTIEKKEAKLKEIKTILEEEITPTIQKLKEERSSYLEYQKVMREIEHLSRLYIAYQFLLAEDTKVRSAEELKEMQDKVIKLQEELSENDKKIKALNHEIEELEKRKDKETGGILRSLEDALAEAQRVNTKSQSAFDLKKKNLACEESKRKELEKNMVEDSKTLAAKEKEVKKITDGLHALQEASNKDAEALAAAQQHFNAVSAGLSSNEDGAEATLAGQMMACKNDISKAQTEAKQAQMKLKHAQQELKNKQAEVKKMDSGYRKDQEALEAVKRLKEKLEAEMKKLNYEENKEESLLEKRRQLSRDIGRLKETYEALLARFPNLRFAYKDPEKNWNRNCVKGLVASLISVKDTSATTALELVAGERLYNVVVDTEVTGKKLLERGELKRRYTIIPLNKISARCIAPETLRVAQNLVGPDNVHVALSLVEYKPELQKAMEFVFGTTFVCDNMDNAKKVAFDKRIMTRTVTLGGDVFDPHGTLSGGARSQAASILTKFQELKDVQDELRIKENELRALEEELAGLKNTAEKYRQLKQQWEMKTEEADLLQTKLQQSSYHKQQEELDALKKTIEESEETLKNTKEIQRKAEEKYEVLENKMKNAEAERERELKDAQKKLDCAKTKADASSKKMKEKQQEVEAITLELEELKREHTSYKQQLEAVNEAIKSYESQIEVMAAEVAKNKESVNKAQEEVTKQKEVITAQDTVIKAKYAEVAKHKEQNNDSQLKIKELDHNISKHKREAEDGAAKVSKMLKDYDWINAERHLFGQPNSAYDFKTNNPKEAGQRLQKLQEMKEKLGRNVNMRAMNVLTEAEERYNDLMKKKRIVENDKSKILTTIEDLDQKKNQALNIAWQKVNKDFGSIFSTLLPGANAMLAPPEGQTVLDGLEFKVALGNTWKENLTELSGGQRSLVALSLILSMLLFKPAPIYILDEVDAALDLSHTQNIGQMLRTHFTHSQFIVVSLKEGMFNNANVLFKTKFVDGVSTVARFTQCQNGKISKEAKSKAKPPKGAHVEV

SMILES | Kd [1] | Kd [2] | Kd [3] | Kd [4] | Kd [5] | Kd [6] | Kd [7]
COc1cc(OC)c(/C=C/S(=O)(=O)Cc2ccc(OC)c(NCC(=O)O)c2)c(OC)c1 [RIGOSERTIB] | > 30 µM (inactive) | > 30 µM (inactive) | > 30 µM (inactive) | > 30 µM (inactive) | > 30 µM (inactive) | > 30 µM (inactive) | > 30 µM (inactive)
C1=C/COCc2cc(ccc2OCCN2CCCC2)Nc2nccc(n2)-c2cccc(c2)COC/1 [PACRITINIB] | > 30 µM (inactive) | > 30 µM (inactive) | > 30 µM (inactive) | > 30 µM (inactive) | > 30 µM (inactive) | 0.258 µM (active) | > 30 µM (inactive)
COc1cc2nccc(Oc3ccc(NC(=O)Nc4cc(C)on4)c(Cl)c3)c2cc1OC [TIVOZANIB] | > 30 µM (inactive) | > 30 µM (inactive) | > 30 µM (inactive) | > 30 µM (inactive) | > 30 µM (inactive) | > 30 µM (inactive) | > 30 µM (inactive)
CNC(=O)c1ccc(-c2cnc3ncc(Cc4ccc5ncccc5c4)n3n2)cc1F [CAPMATINIB] | > 30 µM (inactive) | > 30 µM (inactive) | > 30 µM (inactive) | > 30 µM (inactive) | > 30 µM (inactive) | > 30 µM (inactive) | > 30 µM (inactive)
CC[C@@H]1C(=O)N(C)c2cnc(Nc3ccc(C(=O)N[C@H]4CC[C@H](N5CCN(CC6CC6)CC5)CC4)cc3OC)nc2N1C(C)C [VOLASERTIB] | > 30 µM (inactive) | > 30 µM (inactive) | > 30 µM (inactive) | > 30 µM (inactive) | > 30 µM (inactive) | > 30 µM (inactive) | > 30 µM (inactive)
CN1CCC(COc2cnc(-c3cccc(Cn4nc(-c5cccc(C#N)c5)ccc4=O)c3)nc2)CC1 [TEPOTINIB] | > 30 µM (inactive) | > 30 µM (inactive) | > 30 µM (inactive) | > 30 µM (inactive) | > 30 µM (inactive) | > 30 µM (inactive) | > 30 µM (inactive)
Cc1cc2c(F)c(Oc3ncnn4cc(OC[C@@H](C)OC(=O)[C@H](C)N)c(C)c34)ccc2[nH]1 [BRIVANIB ALANINATE] | > 30 µM (inactive) | > 30 µM (inactive) | > 30 µM (inactive) | > 30 µM (inactive) | > 30 µM (inactive) | > 30 µM (inactive) | > 30 µM (inactive)
CN1N=C(N)c2cn([C@@H]3O[C@H](COP(=O)(O)O)[C@@H](O)[C@H]3O)c3ncnc1c23 [TRICIRIBINE PHOSPHATE] | > 30 µM (inactive) | > 30 µM (inactive) | > 30 µM (inactive) | > 30 µM (inactive) | > 30 µM (inactive) | > 30 µM (inactive) | > 30 µM (inactive)
Cc1cc([C@@H](C)Nc2ccccc2C(=O)O)c2nc(N3CCOCC3)cc(=O)n2c1 [AZD-6482] | > 30 µM (inactive) | > 30 µM (inactive) | > 30 µM (inactive) | > 30 µM (inactive) | > 30 µM (inactive) | > 30 µM (inactive) | > 30 µM (inactive)
CCS(=O)(=O)N1CC(CC#N)(n2cc(-c3ncnc4[nH]ccc34)cn2)C1 [BARICITINIB] | > 30 µM (inactive) | > 30 µM (inactive) | > 30 µM (inactive) | > 30 µM (inactive) | > 30 µM (inactive) | > 30 µM (inactive) | > 30 µM (inactive)
Cc1cc(-c2cc(O)ccc2Cl)cc2nnc(Nc3ccc(OCCN4CCCC4)cc3)nc12 | > 30 µM (inactive) | > 30 µM (inactive) | > 30 µM (inactive) | > 30 µM (inactive) | > 30 µM (inactive) | > 30 µM (inactive) | > 30 µM (inactive)
Cc1c(F)cc(C(=O)NC2CC2)cc1-c1ccc(C(=O)NCC(C)(C)C)cn1 [LOSMAPIMOD] | > 30 µM (inactive) | > 30 µM (inactive) | > 30 µM (inactive) | > 30 µM (inactive) | > 30 µM (inactive) | > 30 µM (inactive) | > 30 µM (inactive)
COc1cc(N2CCC(N3CCN(C)CC3)CC2)ccc1Nc1ncnc(Nc2ccccc2S(=O)(=O)C(C)C)n1 [ASP-3026] | > 30 µM (inactive) | > 30 µM (inactive) | > 30 µM (inactive) | > 30 µM (inactive) | > 30 µM (inactive) | > 30 µM (inactive) | > 30 µM (inactive)
O=c1sn(-c2cccc3ccccc23)c(=O)n1Cc1ccccc1 [TIDEGLUSIB] | > 30 µM (inactive) | > 30 µM (inactive) | > 30 µM (inactive) | > 30 µM (inactive) | > 30 µM (inactive) | > 30 µM (inactive) | > 30 µM (inactive)
CNS(=O)(=O)Nc1nccc(Cc2c(C)c3ccc(Oc4ncccn4)cc3oc2=O)c1F [AVUTOMETINIB] | > 30 µM (inactive) | > 30 µM (inactive) | > 30 µM (inactive) | > 30 µM (inactive) | > 30 µM (inactive) | > 30 µM (inactive) | > 30 µM (inactive)
C[C@@H](Nc1cc(F)cc(F)c1)c1cc(C(=O)N(C)C)cc2c(=O)cc(N3CCOCC3)oc12 [AZD-8186] | > 30 µM (inactive) | > 30 µM (inactive) | > 30 µM (inactive) | > 30 µM (inactive) | > 30 µM (inactive) | > 30 µM (inactive) | > 30 µM (inactive)
Cc1ccc(S(=O)(=O)Nc2nc3ccccc3nc2Nc2ccc3nsnc3c2)cc1 | > 30 µM (inactive) | > 30 µM (inactive) | > 30 µM (inactive) | > 30 µM (inactive) | > 30 µM (inactive) | > 30 µM (inactive) | > 30 µM (inactive)
CN1CCC(CNc2ccc3ncc(-c4cccc(OC(F)(F)F)c4)n3n2)CC1 [SGI-1776] | > 30 µM (inactive) | > 30 µM (inactive) | > 30 µM (inactive) | > 30 µM (inactive) | > 30 µM (inactive) | > 30 µM (inactive) | > 30 µM (inactive)
CCCS(=O)(=O)Nc1ccc(F)c(C(=O)c2c[nH]c3ncc(-c4ccc(Cl)cc4)cc23)c1F [VEMURAFENIB] | > 30 µM (inactive) | > 30 µM (inactive) | > 30 µM (inactive) | > 30 µM (inactive) | > 30 µM (inactive) | > 30 µM (inactive) | > 30 µM (inactive)
